Experimental findings from patent US10947243B2, “Heteroaryl SYK inhibitors” (Boehringer Ingelheim International GmbH, priority 2014, dated 2021) are described below.

For one data set, the target named is Human GSK3beta (Homo sapiens (Human), UniProt P49841). In words: GSK 3β Kinase-Test (Z'-LYTE). The format is biochemical. The following applies: comparison compounds, read-out: IC50 in μM (GSK3beta-Inhibition). As to the method:
Human GSK3beta (expressed and prified from SF21 cells) is obtained from the University Dundee/Scotland (Dr. James Hastie—Dept. of Biochemistry) in 50 mM Tris (pH7.5); 150 mM NaCl; 0.1 mM EGTA, 270 mM Succrose, 0.1% B-mercaptoethanol, 1 mM benzamidine, 0.2 mM PMSF; sequence see below). The enzyme is diluted to 3.56 μM (168 μg/ml) in enzyme dilution buffer and 6 μl aliquots are stored at −80° C.
The activity of GSK3 kinase protein is measured using the Z′-LYTE™ assay technology from Invitrogen (# PV3324).
The assay is performed in 384 black plates from Corning (#3676) in a final volume of 10 μl by adding 5 μl of kinase peptide mix and 2.5 μl of compound dilution. The reaction is started by addition of 2.5 μl of the 4×ATP solution.
Positive controls are reaction mixtures containing no test compound; negative controls (blanks) are reaction mixtures containing no ATP. As a further control, the phosphopeptide solution is added to wells without kinase and without ATP (=100% phosphorylation control). The non inhibited kinase reaction will result in a phosphorylation corresponding to 20%-30% of the phosphorylation control.
The reaction is performed 1 h at room temperature. After 1 h 5 μl of the development solution is added. After a further incubation for 1 h at room temperature 5 μl of the stop reagent is added. Finally the plates are read on a Flex Station II 384 (Molecular Devices).
The output text file is evaluated in an “MS-Excel-VB-Makro” and “GraphPadPrism” (Version 5) (GraphPad Software Inc.) is used to calculate the results. Data for the inhibition of GSK3beta are reported in M. data for the inhibition of the protease are reported in % CTL.

In data set [1] the target is Recombinant human Syk (amino acids 342-635) (Homo sapiens (Human), UniProt P43405). Briefly: Syk Kinase Test (Kinase Glo luminescence). Type of data set: biochemical. The following applies: comparison compounds, read-out: IC50 in μM (SYK-Inhibition). As to the method: (§1) The output file of the reader is a csv file that contains the well number and measured relative light units (RLU). For data evaluation and calculation, the measurement of the negative control was set as 100% ctrl and the measurement of the positive control was set as 0% ctrl. Based on this values the % value for the measurement of each substance concentration was calculated using an Assay Explorer software (Accelrys). Normally, the % ctrl values calculated are between 0% and 100% values but may also occur outside these limits in individual cases based on variability or compound characteristics. The IC50 values were calculated from the % ctrl values using Assay Explorer software. Calculation: [y=(a−d)/(1+(x/c)^b)+d] a=low value, d=high value; x=conc M; c=IC50 M; b=hill; y=% ctrl.
For orientation: Kinase-Glo reads ATP consumption through a luciferase reaction.

A further data set deals with FLT3 (Homo sapiens (Human), UniProt P36888). Briefly: FLT3 Kinase Test (Z'-LYTE). Type of data set: biochemical. The conditions noted are these: comparison compounds, read-out: IC50 in μM (FLT3-Inhibition). As to the method:
The activity of FLT3 is measured using the Z′-LYTE™ assay technology from Invitrogen (#PV3191)
The reaction is started by addition of 2.5 μl of the 4×ATP solution.
Positive controls are reaction mixtures containing no test compound; negative controls (blanks) are reaction mixtures containing no kinase. As a further control, the phosphopeptide solution is added to wells without kinase (=100% phosphorylation control).
The reaction is performed for 1 h at room temperature before 5 μl of the development solution is added. After a further incubation for 1 h at room temperature 5 μl of the stop reagent is added.
The output text file is evaluated in an “MS-Excel-VB-Makro” and “GraphPadPrism” (Version 5) (GraphPad Software Inc.) is used to calculate the results. Data for the inhibition of FLT3 are reported in M. data for the inhibition of the protease are reported in % CTL.

Data set [2] is described as follows: Human Liver Microsomal Stability Test. The format is in vitro ADME. The following applies: human liver microsomes, comparison compounds. As to the method:
The metabolic degradation for a specific SYK-inhibitor is performed at 37° C. with pooled human liver microsomes (human liver microsomes are commercially available as “BD UltraPool™” by Corning Life Sciences, Fogostraat 12, 1060 LJ Amsterdam, The Netherlands). The final incubation volume of 100 μl per time point contains TRIS buffer pH 7.6 at RT (0.1 M), magnesium chloride (5 mM), microsomal protein (1 mg/ml) and the test compound at a final concentration of 1 μM.
Following a short preincubation period at 37° C., the reaction is initiated by addition of beta-nicotinamide adenine dinucleotide phosphate in its reduced form (NADPH, 1 mM) and terminated by transfering an aliquot into solvent after different time points. Additionally, the NADPH-independent degradation is monitored in incubations without NADPH, terminated at the last time point.
The quenched (terminated) incubations are then pelleted by centrifugation (10000 g, 5 min).
An aliquot of the supernatant is assayed by LC-MS/MS for the remaining amount of parent compound. The half-life (t½ INVITRO) is determined by the slope of the semilogarithmic plot of the concentration-time profile.
The intrinsic clearance (CL_[…]) is calculated by considering the amount of protein in the incubation: CL_[…] [μl/min/mg protein]=(Ln 2/(t½INVITRO [min]*protein content [mg/ml]))*1000
The protein content [mg/ml] was determined with the “Bicinchoninic Acid Kit” of Sigma Aldrich (commercially available).
The upscaled intrinsic Clearance (CL_UP_INT) is calcuated by considering the liver weight [g liver/kg body weight] and the microsomal recovery [mg protein/g liver]: CL_UP_INT [ml/min/kg]=0.001*CL_[…]*liver weight*microsomal recovery • with microsomal recovery=45 mg protein/g liver • with liver weight=25.7 g liver/kg body weight
The percent hepatic blood flow (% Qh) is finally calculated by considering the human liver blood flow Q [ml/min/kg]: % Qh [%]=((Q*CL_UP_INT)/(Q+CL_UP_INT)/Q)*100 • with liver blood flow (Q)=20.7 ml/min/kg.
A general note: Liver microsomes are a subcellular fraction often used to study metabolism.

Data set [3] concerns the target Recombinant human Aurora B (amino acids 1-344) (Homo sapiens (Human), UniProt Q96GD4). In words: Aurora B Kinase Test (ADP Glo luminescence). Type of data set: biochemical. The conditions noted are these: comparison compounds, read-out: IC50 in μM (AURB-Inhibition). As to the method: The activity of the Aurora B kinase protein was determined using the ADP Glo® Luminescence Kinase test (Promega; V9103X).
Serial Dilution is done in 1:10 steps in 100% DMSO.
Then 20 μl Kinase detection mix (Detection Buffer #V913B Promega; Kinase Detection Substrate #V914B Promega) were added and incubated for 40 minutes at room temperature.
as §1, with “measured RLU.” for “measured relative light units (RLU).”, “as 0%” for “as 100%”, “as 100%” for “as 0%”, “Calculation: [y=(a−d)/(1+(x/c)^b)+d],” for “Calculation: [y=(a−d)/(1+(x/c)^b)+d]”
(ADP-Glo first removes unused ATP, then detects ADP through luciferase.)

[4] abbreviates: Example numbers of WO 2013/014060.
Where [5] appears, read: Example numbers of WO 2011/092128.

SMILES strings stand for the structures. Like-named read-outs stand apart in the source and are kept apart here.

FLT3, sequence (P36888 564-958): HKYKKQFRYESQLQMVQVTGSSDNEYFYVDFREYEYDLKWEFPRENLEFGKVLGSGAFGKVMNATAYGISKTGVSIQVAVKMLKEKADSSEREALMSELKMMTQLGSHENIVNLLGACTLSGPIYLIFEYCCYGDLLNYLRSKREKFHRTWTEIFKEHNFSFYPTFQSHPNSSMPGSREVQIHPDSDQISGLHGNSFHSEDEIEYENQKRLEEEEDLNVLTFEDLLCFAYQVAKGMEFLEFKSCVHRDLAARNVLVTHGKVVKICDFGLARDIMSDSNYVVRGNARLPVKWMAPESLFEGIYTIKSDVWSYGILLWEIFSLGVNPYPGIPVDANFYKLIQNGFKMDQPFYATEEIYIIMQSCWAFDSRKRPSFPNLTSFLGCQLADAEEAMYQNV
Recombinant human Aurora B (amino acids 1-344), sequence (Q96GD4 whole entry, the tested form may be a part): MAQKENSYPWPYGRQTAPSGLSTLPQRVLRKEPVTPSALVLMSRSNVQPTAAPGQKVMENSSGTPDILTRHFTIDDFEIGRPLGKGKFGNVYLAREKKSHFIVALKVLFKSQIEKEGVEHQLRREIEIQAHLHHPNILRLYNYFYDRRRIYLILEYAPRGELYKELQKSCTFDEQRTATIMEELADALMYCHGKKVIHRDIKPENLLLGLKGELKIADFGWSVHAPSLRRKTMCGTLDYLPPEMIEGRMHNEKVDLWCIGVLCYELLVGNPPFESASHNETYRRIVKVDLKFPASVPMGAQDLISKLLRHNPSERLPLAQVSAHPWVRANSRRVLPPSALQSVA
Human GSK3beta, sequence (P49841 whole entry): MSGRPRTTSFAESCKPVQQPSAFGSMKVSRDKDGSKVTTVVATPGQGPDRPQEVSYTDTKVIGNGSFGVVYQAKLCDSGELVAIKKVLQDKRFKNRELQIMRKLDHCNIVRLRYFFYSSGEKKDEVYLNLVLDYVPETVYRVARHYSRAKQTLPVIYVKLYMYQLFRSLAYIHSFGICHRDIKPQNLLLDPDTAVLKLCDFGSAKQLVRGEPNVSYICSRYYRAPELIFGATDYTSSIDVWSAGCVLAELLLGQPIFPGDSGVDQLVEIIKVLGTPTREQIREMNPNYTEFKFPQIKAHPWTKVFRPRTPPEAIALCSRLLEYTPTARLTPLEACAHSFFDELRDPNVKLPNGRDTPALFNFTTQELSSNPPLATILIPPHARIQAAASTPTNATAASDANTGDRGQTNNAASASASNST

For orientation: IC50 means the midpoint of a concentration-inhibition curve. On to `C[C@@H](Oc1nc(-c2cnn(C3CCC(F)(F)CC3)c2)cc2nn(C)cc12)[C@H]1CNC(=O)C1` [Example 10, (4R)-4-[(1R)-1-[6-[1-(4,4-Difluorocyclohexyl)pyrazol-4-yl]-2-methyl-pyrazolo[4,3-c]pyridin-4-yl]oxyethyl]pyrrolidin-2-one], for which the IC50 at Human GSK3beta (setting [4]) is > 10 µM; in data set [1] (setting [4]), 0.001 µM; at FLT3 (setting [4]), 0.312 µM; in data set [3] (setting [4]), 0.271 µM. The “microsomal stability Cl [% Qh]” value in data set [2] (setting [4]) came out at 57 % Qh.
Consider `C[C@@H](Oc1nc(-c2cnn(C3CCCCC3)c2)cc2nn(C)cc12)[C@H]1CNC(=O)C1` [Example 7, (R)-4-((R)-1-(6-(1-cyclohexyl-1H-pyrazol-4-yl)-2-methyl-2H-pyrazolo[4,3-c]pyridin-4-yloxy)ethyl)pyrrolidin-2-one], for which the IC50 at Human GSK3beta (setting [5]) was > 10 µM; in data set [1] (setting [5]), 0.002 µM; on FLT3 (setting [5]), 0.452 µM; in data set [3] (setting [5]) it was 2.33 µM. Further, the “microsomal stability Cl [% Qh]” value in data set [2] (setting [5]) was found to be 79 % Qh.
Consider `C[C@@H](Oc1nc(-c2cc3nn(C)cc3c(O[C@H](C)[C@H]3CNC(=O)C3)n2)cc2nn(C)cc12)[C@@H]1CNC(=O)C1` [Example 11, (4S)-4-[(1R)-1-[2-methyl-6-[2-methyl-4-[(1R)-1-[(3R)-5-oxopyrrolidin-3-yl]ethoxy]-pyrazolo[4,3-c]pyridin-6-yl]pyrazolo[4,3-c]pyridin-4-yl]oxyethyl]pyrrolidin-2-one], for which the IC50 at Human GSK3beta (setting [4]) was > 10 µM; in data set [1] (setting [4]) it was 0.002 µM; at FLT3 (setting [4]) it was 0.738 µM; in data set [3] (setting [4]) it was 0.752 µM. For the same molecule, the “microsomal stability Cl [% Qh]” value in data set [2] (setting [4]) amounted to 24 % Qh.
In the same order, the values of `CC(C)n1cc(-c2cc(O[C@H](C)[C@H]3CNC(=O)C3)c3cccnc3c2)cn1` [compound 115] are > 10 µM, 0.0002 µM, 0.041 µM, 0.021 µM and <23 % Qh.
